{"source": "paper PMC6572135", "about": "“N-Methyl-D-glucamine–Calix[4]resorcinarene Conjugates: Self-Assembly and Biological Properties” (Molecules, 2019)", "assay": "Conductometry, critical aggregation concentration", "type": "physicochemical", "conditions": "water solution, 25 °C; GCR-2 in the presence of two-fold excess of MG", "protocol": "Firstly, self-assembly of GCR-1 was studied by conductometric measurements (Figure 1). Specific conductivity increases proportionately with the GCR-1 concentration in water solution. Inflection on the plot appears at 14 mM, and after this critical aggregation concentration (CAC) the increment rate of conductivity reduces because the aggregates transfer charge less efficiently than monomers. Remarkably, modification of calix[4]resorcinarene by N-methyl-D-glucamine fragment facilitates self-aggregation of macrocycle in water medium (Figure 1). The CAC value for calix[4]resorcinarene (CR-1) without meglumine units at the upper rim is 20 mM that is greater than that for meglumine-modified calix[4]resorcinarene. The driving forces of intermolecular aggregates’ formation are probably hydrogen bonds between hydroxyl groups on the GCR-1 upper rim, so the presence of additional OH-groups in the meglumine group reinforces this noncovalent interaction. A stable pH value, which can be observed over a wide range of concentrations, verifies that the N-methyl-D-glucamine fragment is an effective buffer component (Figure S4). […] As a result, the aggregation of this calix[4]resorcinarene was studied in water solutions at the presence of two-fold excess of N-methyl-D-glucamine (MG). […] Specific conductivity values were measured at least three times for each concentration. […]"}
{"substance": "Sulfonatoethylcalix[4]resorcinarene [CR-1, reference compound]", "values": [{"measurement": "CAC, conductometry", "value": 20, "unit": "mM"}]}
